Source: patent US8507546B2, “Use of inhibitors of scavenger receptor class proteins for the treatment of infectious diseases” (Instituto de Medicina Molecular, Faculdade de Medicina da …, priority 2006, dated 2013)
One block for each compound: values may come before it.

Assays:
Plasmodium berghei ANKA = test: Inhibition of EEF development in Huh-7 human hepatoma cells infected with sporozoites (immunofluorescence microscopy); type: cell-based; settings: compound at 8 μM, 1.6 μM, 320 nM, 64 nM, 1 h before infection with 10,000 sporozoites per well
Text: To model this infection, the inventors have developed an assay monitoring infection and maturation of Plasmodium berghei ANKA, a mouse-pathogenic close relative of the human-pathogenic Plasmodium falciparum strain, in cultured human hepatoma cells. Huh human hepatoma cells, were cultivated in RPMI (Gibco/Invitrogen) medium containing 10% FBS, 1% non-essential amino acid solution (Gibco/Invitrogen), 1% penicillin/streptomycin solution (Gibco/Invitrogen), 1% glutamine (Gibco/Invitrogen) and 1% Hepes pH 8 (Gibco/Invitrogen). 4000-6000 cells per well were seeded in a volume of 100 μl/well. Sporozoites were obtained from Anopheles stephensi mosquitoes infected with P. berghei ANKA or P. yoelii. Salivary glands were dissected and collected in RPMI medium (GIBCO) on ice. Collected tissues were gently ground in the medium to release sporozoites. Tissue fragments were removed by centrifugation at 40×g for 3 min, and sporozoites were collected from the supernatant. Blt-1, Blt-2, and Blt-4 were purchased from ChemBridge Corporation (San Diego, USA). Ezetimibe (for chemical structure see FIG. 6 and structure (XXVI)) was derived from powdered Ezeterol tablets (Essex Pharma, UK). Each compound was dissolved in DMSO at a final concentration of 50 mM. 48 hours after seeding of 6000 Huh-7 cells per well, growth medium was replaced by fresh complete culture medium, containing the compounds in 4 different concentrations, generated by dilution series of the compound stock solutions in complete growth medium: 8 μM; 1.6 μM; 320 nM; 64 nM. […] Cells were imaged using a fully automated fluorescence microscope from MDC (Molecular Devices Corporation, CA, USA). […] Numerical readouts comprised of cell proliferation as measured by the number of nuclei per imaged field (Hoechst staining), cell confluency as measured by the percentage of the imaged field covered by cells (actin/Phalloidin staining), and number of EEFs per imaged field. […] Objects in a size range of 16-150 pixels were quantified. […]

P. berghei ANKA = test: Liver infection in mice, parasite 18S RNA by Real-Time PCR; type: in vivo, Plasmodium berghei; settings: C57Bl/6 mice
Description: Ezeterol tablets were used to prepare a 0.3 mg/ml solution of Ezetimibe in water. Experimental C5781/6 mice were treated by oral gavage with 200 μl of Ezetimibe solution (3 mg/kg) 2 hours prior to infection with sporozoites. To control mice, 200 μl of water were administered by oral gavage. Infection with Plasmodium berghei was performed by i.v. injection of 30 000 sporozoites (see FIG. 5). For BLT-1 treatment of C57Bl/6 mice (male, 6-8 weeks old), intra-peritoneal injections of 50 mg/kg of BLT-1 in DMSO were carried out prior to infection. Control mice were treated with DMSO only. Two hours later, mice were infected by intravenous injection with 3×10^4 P. berghei sporozoites (see FIG. 12).
Mice were sacrificed 40-42 hours after infection and their livers collected. Livers were placed in 4 ml cold lysis buffer (4 M guanidine thio-cyanate, 25 mM sodium citrate, pH 7.0 and 0.5% sarcosyl) and homogenised on ice with a tissue tearer. 1 ml aliquots of liver homogenate were kept at −80° C. until RNA extraction. Total RNA was extracted from 50 μl of liver homogenate with Qiagen's RNeasy RNA extraction kit following the instructions of the manufacturer. […]
P. berghei ANKA load and ScarB1 expression in the liver was quantified by Real-Time PCR using the SYBR Green Mix (Applied Biosystems) and primers designed for the 18S RNA of the parasite and primers for ScarB1. […]

P. yoelii = P. yoelii EEF development in Hepa 1-6 cells; type: cell-based, Plasmodium yoelii; settings: 10 μM; full 24 hours of infection, first 2 hours only, or 2 hours after infection until 24 hours
Description: Hepa 1-6 cells were cultured in complete DMEM medium (Gibco/Invitrogen) supplemented with 10% fetal calf serum (Gibco/Invitrogen) and 1% penicillin/streptomycin (Gibco/Invitrogen) incubated at 37° C. and 5% CO2. Sporozoites were obtained from Anopheles stephensi mosquitoes infected with P. berghei ANKA or P. yoelii. Salivary glands were dissected and collected in RPMI medium (GIBCO) on ice. Collected tissues were gently ground in the medium to release sporozoites. Tissue fragments were removed by centrifugation at 40×g for 3 min, and sporozoites were collected from the supernatant. Cells were treated with 10 μM BLT-1 for different time points: for the full 24 hours of infection with P. yoelii (1×10^5 sporozoites), only during the first 2 hours of infection, or for the time of 2 hours after infection until evaluation of infection at 24 hours (see FIG. 15).

P. berghei = test: EEF development in mouse primary hepatocytes infected with P. berghei sporozoites; type: cell-based, Plasmodium berghei; settings: 10 μM; full 24 hours of infection, first 2 hours only, or 2 hours after infection until 24 hours
Description: C57B1/6 freshly isolated mouse primary hepatocytes (1×10^5 cells per well) were seeded in 700 μl of Williams E medium supplemented with 1× glutamax (Gibco/Invitrogen), 4% fetal calf serum (Gibco/Invitrogen) and 1% penicillin/streptomycin (Gibco/Invitrogen) in 24 well plates incubated at 37° C. 5% CO2. After two days cells were treated with 10 μM BLT-1 for different time points: for the full 24 hours of infection with P. berghei (5×10^5 sporozoites), only during the first 2 hours of infection, or for the time of 2 hours after infection until evaluation at 24 hours. (see FIG. 14)

SMILES: O=C1[C@H](CC[C@H](O)c2ccc(F)cc2)[C@@H](c2ccc(O)cc2)N1c1ccc(F)cc1 [Ezetimibe]
EEF (Exo-Erythrocytic Forms) development, EEF number (Plasmodium berghei ANKA): Inhibition of EEF development
infection rate for liver in mice (P. berghei ANKA; 3 mg/kg oral gavage 2 hours prior to i.v. infection with 30 000 sporozoites, livers 40-42 hours after infection): reduces infection rate for liver

SMILES: COc1ccccc1NC(=O)Nc1ccc2ccccc2c1 [BLT-4]
EEF (Exo-Erythrocytic Forms) development, EEF number (Plasmodium berghei ANKA): Inhibition of EEF development

EEF development in Mouse Primary Hepatocytes (P. berghei): Inhibition of EEF development
SMILES: CCCCCCC1CCC/C1=N\NC(N)=S (stereo not shown) [BLT-1]
EEF (Exo-Erythrocytic Forms) development, EEF number (Plasmodium berghei ANKA): Inhibition of EEF (Exo-Erythrocytic Forms) development
infection rate for liver in mice (P. berghei ANKA; 50 mg/kg intra-peritoneal in DMSO two hours before i.v. infection with 3×10^4 P. berghei sporozoites): reduces infection rate for liver
P. Yoelii EEF development in Hepa 1-6 cells (P. yoelii): Inhibition of P. Yoelii EEF development
